One compound from EPA's ToxValDB 9.5 (doi:10.2903/j.efsa.2008.168r) can be followed below.

The subject of one series is Anatidae. To be noted: oral, mortality.
The test system of a further series is Apis mellifera. The settings on record: acute; duration: 48 hours; oral; unspecified; mortality.
The test system of the next series is Bibionidae. The settings on record: chronic/long-term; duration: 26 days.
In another series the test system is Canidae. To be noted: chronic; duration: 1 years; oral; Dog Other; body weight.
Another series has as its system Coturnix japonica. The settings on record: acute, oral, mortality.
A further series has as its system Daphnia magna. The settings on record: chronic/long-term; duration: 21 days; reproduction.
Another series concerns Folsomia candida. The settings on record: chronic/long-term.
The subject of the next series is Mus musculus. To be noted: chronic; duration: 2 years; body weight.
A further series has as its system Oncorhynchus mykiss. The settings on record: acute; duration: 96 hours; mortality.
The test system of another series is Oryctolagus sp. The settings on record: reproduction developmental; body weight.
The subject of a further series is Pimephales promelas. The settings on record: chronic/long-term; duration: 32 days.
For the next series, the system named is Aphidius rhopalosiphi. In words: LR50; higher = less toxic. The settings on record: not reported; mortality.

Usually NOAEL stands for the highest tested level that showed no adverse finding. Consider `Nc1nc(N)nc(NC2CC2)n1` [Cyromazine], for which the LD50 was more than 2510 mg/kg in the series on Anas platyrhynchos (acute, oral, unspecified, mortality); more than 1000 mg/kg with Anatidae (acute, unspecified); 186 µg/piece in the series on Apis mellifera; 1780 mg/kg in the series on Colinus virginianus (acute, oral, mortality); 2340 mg/kg in the series with Coturnix japonica; 3390 mg/kg with Rattus norvegicus (acute, mortality). The NOEL with Anas platyrhynchos (reproductive) was 38.3 mg/kg-day; with Colinus virginianus (reproduction developmental), 110 mg/kg-day. Further, the LC50 in the series on Anas platyrhynchos (short-term, oral, feed, mortality) is more than 526 mg/kg-day; in the series on Anatidae (short-term, feed) it was more than 1120 mg/kg-day; in the series with Colinus virginianus (acute, oral, diet, mortality), more than 1370 mg/kg-day; in the series on Coturnix japonica (diet), more than 683 mg/kg-day; in the series with Oncorhynchus mykiss, more than 100 µg/mL; in the series on Tagia sp. (acute, duration: 14 days, mortality), more than 1000 mg/kg. The NOEC in the series on Bibionidae amounted to 0.025 mg/L; in the series on Daphnia magna, 0.31 mg/L; in the series on Folsomia candida, 9.6 mg/kg; in the series on Pimephales promelas, 14 mg/L; in the series with Tagia sp. (chronic/long-term, duration: 56 days, reproduction) it was 333 mg/kg. The NOAEL in the series with Canidae amounted to 5.74 mg/kg-day; with Mus musculus, 6.5 mg/kg-day; in the series on Oryctolagus sp., 10 mg/kg-day; with Rattus norvegicus (reproduction developmental, reproduction) it was 30 mg/kg-day. The compound also showed an LR50 with Aphidius rhopalosiphi not below 891 g/ha.
